Measured values as given in patent EP4711361A1, “NITROGEN-CONTAINING HETEROCYCLIC COMPOUND AND USE THEREOF” (Jiangsu Deyuan Pharmaceutical Co.,Ltd., priority 2023, dated 2024).
pIC50: −log10 of the molar value. Read-outs that look alike come from different tables or passages of the source.

Experiments:
human CYP11B1 = molecular target: T1, human CYP11B1 (Homo sapiens, UniProt P15538); experiment: In vitro activity assay of monoclonal cells overexpressing human CYP11B1; assay type: cell-based; conditions: G402 cells overexpressing human CYP11B1; 1 µM 11-deoxycortisol, 16 hours; cortisol by LC-MS/MS
T1 construct: expressed in transfected cells; host or cells: human renal leiomyoma G402 cells (monoclonal)
T1 sequence (P15538 25-503): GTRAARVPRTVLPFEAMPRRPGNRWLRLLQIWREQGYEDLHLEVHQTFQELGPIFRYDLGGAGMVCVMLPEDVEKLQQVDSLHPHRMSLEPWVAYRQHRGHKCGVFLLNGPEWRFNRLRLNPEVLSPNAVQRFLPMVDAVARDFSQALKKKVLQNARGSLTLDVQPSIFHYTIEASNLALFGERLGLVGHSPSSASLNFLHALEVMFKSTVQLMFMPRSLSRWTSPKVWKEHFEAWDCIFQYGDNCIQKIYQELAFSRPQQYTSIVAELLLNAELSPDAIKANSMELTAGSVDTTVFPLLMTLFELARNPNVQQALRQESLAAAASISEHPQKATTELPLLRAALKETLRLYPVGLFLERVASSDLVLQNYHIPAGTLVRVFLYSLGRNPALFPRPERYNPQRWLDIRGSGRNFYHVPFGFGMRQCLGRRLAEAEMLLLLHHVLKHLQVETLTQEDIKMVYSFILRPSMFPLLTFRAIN
Procedure: The human renal leiomyoma G402 cell line overexpressing human CYP11B1 was selected to serve as a compound selectivity screening system.
Day 1: Cells were digested, and human renal leiomyoma G402 cells overexpressing CYP11B1 were resuspended to 1×10^5 cells/mL, with 100 µL seeded into a 96-well plate.
(§1) Day 3: The cell supernatant was collected and added to 200 µL of a methanol solution containing internal standards (internal standards: 35 ng/mL ketoprofen or 7.5 ng/mL carbamazepine or 5 ng/mL diphenhydramine or 10 ng/mL tolbutamide). The mixture was vortexed and centrifuged (4000×g, 4°C, 5 minutes). Then, 100 µL of the supernatant was taken and mixed with 100 µL of pure water.
Ratio = Cortisol peak area/Internal standard peak area [formula] Control activity% = (Ratiotestcompound/RatioDMSO) × 100% [formula]
(§2) "Ratio test compound" represents the Ratio values at different concentrations of the test compound.
(§3) "Ratio DMSO" represents the Ratio value without the addition of the test compound. • X = Log (compound concentration) • Y = Control activity%
The IC50 of the test compound was determined by fitting to a nonlinear regression equation using XLfit 5.5.0. Table 4: Results for in vitro activity assay of monoclonal cells overexpressing human CYP11B1

CYP2C19 = molecular target: T2, CYP2C19 (Homo sapiens, UniProt P33261); experiment: Human liver microsome CYP inhibition assay, CYP2C19; assay type: in vitro ADME
T2 construct: Mixed human liver microsomes (HLM) were purchased from Corning Inc; tissue Corning Inc; host or cells: pooled (mixed) human liver microsomes
Procedure: (§4) Experimental objective: To evaluate the inhibitory activity of the test substance on human liver microsomal cytochrome P450 isoenzymes (CYP1A2, CYP2C9, CYP2C19, CYP2D6, CYP3A4) using a 5-in-1 probe substrate for CYP isoenzymes.
(§5) Mixed human liver microsomes (HLM) were purchased from Corning Inc. (Steuben, New York, USA) and stored at temperatures below -70°C prior to use.
(§6) The working solution of the test substance, which had been diluted to a series of concentrations, was added to an incubation system containing human liver microsomes, probe substrates, and auxiliary factors of the circulatory system. A control containing solvent but no test substance served as an enzyme activity control (100%). The concentration of metabolites produced from probe substrates in the samples was determined using Liquid Chromatography-Tandem Mass Spectrometry (LC-MS/MS) method. Non-linear regression analysis of the average percentage activity of the test substance against its concentration was conducted using SigmaPlot (V.11). The IC50 values were calculated using a three-parameter or four-parameter inverse log equation. Table 10: Cytochrome P450 isoenzyme half maximal inhibitory concentration IC50 (µM)

CYP2C9 = molecular target: T3, CYP2C9 (Homo sapiens, UniProt P11712); experiment: Human liver microsome CYP inhibition assay, CYP2C9; assay type: in vitro ADME
T3 construct: Mixed human liver microsomes (HLM) were purchased from Corning Inc; tissue Corning Inc; host or cells: pooled (mixed) human liver microsomes
Procedure: as §4, §5, §6

CYP1A2 = molecular target: T4, CYP1A2 (Homo sapiens, UniProt P05177); experiment: Human liver microsome CYP inhibition assay, CYP1A2; assay type: in vitro ADME
T4 construct: Mixed human liver microsomes (HLM) were purchased from Corning Inc; tissue Corning Inc; host or cells: pooled (mixed) human liver microsomes
Procedure: as §4, §5, §6

CYP3A4 = molecular target: T5, CYP3A4 (Homo sapiens, UniProt P08684); experiment: Human liver microsome CYP inhibition assay, CYP3A4; assay type: in vitro ADME
T5 construct: Mixed human liver microsomes (HLM) were purchased from Corning Inc; tissue Corning Inc; host or cells: pooled (mixed) human liver microsomes
Procedure: as §4, §5, §6

human CYP11B2 = molecular target: T6, human CYP11B2 (Homo sapiens, UniProt P19099); experiment: In vitro activity assay of monoclonal cells overexpressing human CYP11B2; assay type: cell-based; conditions: G402 cells overexpressing human CYP11B2; 1 µM 11-deoxycorticosterone, 16 hours; aldosterone by LC-MS/MS
T6 construct: expressed in transfected cells; host or cells: human renal leiomyoma G402 cells (monoclonal)
T6 sequence (P19099 25-503): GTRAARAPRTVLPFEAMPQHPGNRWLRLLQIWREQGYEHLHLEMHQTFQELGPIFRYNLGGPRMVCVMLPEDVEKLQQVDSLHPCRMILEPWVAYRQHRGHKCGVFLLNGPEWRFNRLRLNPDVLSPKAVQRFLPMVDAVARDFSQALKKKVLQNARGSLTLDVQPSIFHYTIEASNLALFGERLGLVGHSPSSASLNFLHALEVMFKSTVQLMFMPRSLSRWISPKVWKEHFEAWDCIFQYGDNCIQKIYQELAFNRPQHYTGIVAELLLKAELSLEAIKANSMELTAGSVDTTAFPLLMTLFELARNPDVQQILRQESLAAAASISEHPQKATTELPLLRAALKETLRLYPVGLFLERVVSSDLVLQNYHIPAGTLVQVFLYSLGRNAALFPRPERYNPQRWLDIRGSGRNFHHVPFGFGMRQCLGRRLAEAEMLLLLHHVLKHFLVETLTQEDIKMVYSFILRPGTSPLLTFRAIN
Procedure: The human renal leiomyoma G402 cell line overexpressing human CYP11B2 was selected to serve as a compound activity screening system. Table 1: Cell and reagent information
2) Compound details: The test compound was prepared as a 10 µM working concentration using DMSO. 3) Experimental procedure
Day 1: Cells were digested, and human renal leiomyoma G402 cells overexpressing human CYP11B2 were resuspended to 1×10^5 cells/mL, with 100 µL seeded into a 96-well plate.
as §1
Ratio = Aldosterone peak area/Internal standard peak area [formula] Control activity% = (Ratiotestcompound/RatioDMSO) × 100% [formula]
as §2, §3
The IC50 of the test compound was determined by fitting to a nonlinear regression equation using XLfit 5.5.0. Table 3: Results for in vitro activity assay of monoclonal cells overexpressing human CYP11B2

CYP2D6 = molecular target: T7, CYP2D6 (Homo sapiens, UniProt P10635); experiment: Human liver microsome CYP inhibition assay, CYP2D6; assay type: in vitro ADME
T7 construct: Mixed human liver microsomes (HLM) were purchased from Corning Inc; tissue Corning Inc; host or cells: pooled (mixed) human liver microsomes
Procedure: as §4, §5, §6

in vitro [1] = conditions: rat, plasma
in vitro [2] = conditions: human, microsomes
in vivo = conditions: rat, po, 2 mg/kg

T3 sequence (P11712 whole entry): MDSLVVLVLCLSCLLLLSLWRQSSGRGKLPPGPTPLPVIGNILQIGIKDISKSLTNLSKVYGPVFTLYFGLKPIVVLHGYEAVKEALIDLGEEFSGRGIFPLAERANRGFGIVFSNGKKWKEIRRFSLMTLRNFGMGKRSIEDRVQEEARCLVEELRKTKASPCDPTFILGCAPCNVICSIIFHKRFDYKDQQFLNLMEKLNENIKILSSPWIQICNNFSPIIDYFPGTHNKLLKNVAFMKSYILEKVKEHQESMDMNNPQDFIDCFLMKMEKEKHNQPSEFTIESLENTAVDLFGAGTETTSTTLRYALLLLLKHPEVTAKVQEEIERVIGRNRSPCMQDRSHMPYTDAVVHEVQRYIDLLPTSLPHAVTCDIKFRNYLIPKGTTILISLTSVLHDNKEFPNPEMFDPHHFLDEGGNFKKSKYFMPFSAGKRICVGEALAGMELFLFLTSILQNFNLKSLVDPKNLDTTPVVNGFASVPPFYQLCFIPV
T4 sequence (P05177 whole entry): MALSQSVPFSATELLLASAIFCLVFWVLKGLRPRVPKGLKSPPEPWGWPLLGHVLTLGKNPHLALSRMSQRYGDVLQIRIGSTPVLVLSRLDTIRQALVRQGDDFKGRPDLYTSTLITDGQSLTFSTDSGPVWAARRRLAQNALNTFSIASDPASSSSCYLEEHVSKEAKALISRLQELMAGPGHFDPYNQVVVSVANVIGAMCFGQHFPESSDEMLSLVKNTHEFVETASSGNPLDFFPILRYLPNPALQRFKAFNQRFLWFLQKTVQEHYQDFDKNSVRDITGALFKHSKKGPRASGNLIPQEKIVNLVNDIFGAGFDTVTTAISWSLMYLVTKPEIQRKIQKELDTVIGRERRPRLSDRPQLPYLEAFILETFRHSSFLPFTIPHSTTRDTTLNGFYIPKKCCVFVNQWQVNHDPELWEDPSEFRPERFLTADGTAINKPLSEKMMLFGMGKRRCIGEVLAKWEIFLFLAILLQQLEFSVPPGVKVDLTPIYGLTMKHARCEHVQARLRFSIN
T2 sequence (P33261 whole entry): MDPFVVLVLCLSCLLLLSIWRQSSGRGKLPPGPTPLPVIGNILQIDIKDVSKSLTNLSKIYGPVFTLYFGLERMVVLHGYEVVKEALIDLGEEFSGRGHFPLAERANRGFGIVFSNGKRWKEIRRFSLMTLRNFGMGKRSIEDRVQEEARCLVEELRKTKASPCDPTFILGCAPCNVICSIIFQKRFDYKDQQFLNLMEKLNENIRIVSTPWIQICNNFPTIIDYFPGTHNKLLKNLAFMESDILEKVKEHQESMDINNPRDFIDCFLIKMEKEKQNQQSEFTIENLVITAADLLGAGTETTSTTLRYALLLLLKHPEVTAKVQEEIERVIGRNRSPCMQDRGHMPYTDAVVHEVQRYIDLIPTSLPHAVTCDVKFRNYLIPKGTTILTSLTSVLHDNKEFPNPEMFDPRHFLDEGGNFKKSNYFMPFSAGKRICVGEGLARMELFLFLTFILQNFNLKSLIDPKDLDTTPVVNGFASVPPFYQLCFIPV
T7 sequence (P10635 whole entry): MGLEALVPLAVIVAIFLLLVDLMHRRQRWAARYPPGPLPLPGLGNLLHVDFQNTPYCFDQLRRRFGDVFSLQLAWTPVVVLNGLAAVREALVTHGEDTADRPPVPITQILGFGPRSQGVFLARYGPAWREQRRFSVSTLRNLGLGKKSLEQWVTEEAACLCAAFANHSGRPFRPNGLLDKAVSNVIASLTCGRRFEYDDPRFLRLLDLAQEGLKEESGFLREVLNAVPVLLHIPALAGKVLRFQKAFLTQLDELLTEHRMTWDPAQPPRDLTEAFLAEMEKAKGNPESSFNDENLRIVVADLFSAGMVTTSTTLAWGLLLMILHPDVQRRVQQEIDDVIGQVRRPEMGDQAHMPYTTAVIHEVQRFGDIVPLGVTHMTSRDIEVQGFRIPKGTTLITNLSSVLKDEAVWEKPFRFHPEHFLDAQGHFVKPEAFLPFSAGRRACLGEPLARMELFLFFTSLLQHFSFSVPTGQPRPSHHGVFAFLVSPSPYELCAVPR
T5 sequence (P08684 whole entry): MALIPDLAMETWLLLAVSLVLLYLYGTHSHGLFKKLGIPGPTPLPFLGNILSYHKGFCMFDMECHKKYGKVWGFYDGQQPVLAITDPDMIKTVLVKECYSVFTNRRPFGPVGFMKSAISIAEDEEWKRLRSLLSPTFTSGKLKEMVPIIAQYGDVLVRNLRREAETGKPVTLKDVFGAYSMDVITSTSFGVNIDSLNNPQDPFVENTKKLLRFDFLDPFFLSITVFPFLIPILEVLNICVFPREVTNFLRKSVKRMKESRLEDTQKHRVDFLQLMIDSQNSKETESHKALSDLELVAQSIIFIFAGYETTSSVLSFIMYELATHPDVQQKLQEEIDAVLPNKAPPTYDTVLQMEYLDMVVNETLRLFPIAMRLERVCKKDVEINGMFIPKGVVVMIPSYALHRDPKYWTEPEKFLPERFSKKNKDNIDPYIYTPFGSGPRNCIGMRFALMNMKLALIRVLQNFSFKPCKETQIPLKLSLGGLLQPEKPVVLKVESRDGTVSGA

Row | Structure (SMILES) | pIC50 (human CYP11B1) | IC50 (CYP2C19; mixed human liver microsomes, 5-in-1 probe substrate, read-out: Cytochrome P450 isoenzyme half maximal inhibitory concentration IC50 (µM) CYP2C19) | IC50 (CYP2C9; mixed human liver microsomes, 5-in-1 probe substrate, read-out: Cytochrome P450 isoenzyme half maximal inhibitory concentration IC50 (µM) CYP2C9) | IC50 (CYP1A2; mixed human liver microsomes, 5-in-1 probe substrate, read-out: Cytochrome P450 isoenzyme half maximal inhibitory concentration IC50 (µM) CYP1A2) | IC50 (CYP3A4; mixed human liver microsomes, 5-in-1 probe substrate, read-out: Cytochrome P450 isoenzyme half maximal inhibitory concentration IC50 (µM) CYP3A4) | pIC50 (human CYP11B2) | IC50 (CYP2D6; mixed human liver microsomes, 5-in-1 probe substrate, read-out: Cytochrome P450 isoenzyme half maximal inhibitory concentration IC50 (µM) CYP2D6) | fraction unbound at 4 h, 2 µM (in vitro [1]) | pIC50 (CYP2C19) | CLint scaled at 1 µM (in vitro [2]) | AUC(0-t) at 24 h (in vivo) | Cmax (in vivo) | bioavailability (in vivo) | half-life (in vivo) | pIC50 (CYP2C9) | pIC50 (CYP1A2) | pIC50 (CYP3A4) | pIC50 (CYP2D6)
1 | CCC(=O)N[C@@H]1CCCc2c(-c3ccc4c(ccc(=O)n4C)c3)cncc21 (single isomer, unassigned) [Compound 001] | 5.61 | > 50 µM | > 50 µM | > 50 µM | > 50 µM | 7.92 | > 50 µM | – | – | – | – | – | – | – | – | – | – | –
2 | CCC(=O)NC1CCCc2c(-c3cc4c(s3)N(C)C(=O)CC4)cncc21 (single isomer, unassigned) [Compound 017] | 6.49 | – | – | – | – | 8.68 | – | 0.051 | < 4.30 | < 8.6 mL/min/kg | 8.13 µM·h | 4.17 µM | 115% | 1.34 h | 4.35 | < 4.30 | < 4.30 | < 4.30
3 | CCC(=O)NC1CCCc2c(-c3cc4ccc(=O)n(C)c4s3)cncc21 (single isomer, unassigned) [Compound 023] | 5.76 | – | – | – | – | 7.90 | – | 0.096 | < 4.30 | < 8.6 mL/min/kg | 44.2 µM·h | 6.92 µM | 109% | 3.6 h | < 4.30 | < 4.30 | < 4.30 | < 4.30
